Laboratory results reported in patent US20260317299A1, “PIKFYVE PROTEIN KINASE DEGRADATION AGENT AND USE THEREOF” (Shanghai Institute of Organic Chemistry, Chinese Academy of …, priority 2023, published 2026).

Target: T1, PIKfyve (Homo sapiens, UniProt Q9Y2I7)
T1 construct: endogenous in cells; host or cells: VCaP
Assay: Degradation of PIKfyve proteins in VCaP tumor cells (24 h, Western blot)
Assay type: cell-based
Conditions: 37° C., compared with DMSO control, WB, read-out: DC50 (concentration that achieves 50% degradation activity)
Procedure, shortened: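 VCaP cells (5×10^6 cells/ml) treated with a range of compound concentrations at 37° C for 24 h, then lysed in SDS buffer. PIKfyve level measured by Western blot with GAPDH as loading control and ECL detection. DC50 is the concentration giving 50% degradation relative to DMSO control.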

T1 sequence (Q9Y2I7 whole entry): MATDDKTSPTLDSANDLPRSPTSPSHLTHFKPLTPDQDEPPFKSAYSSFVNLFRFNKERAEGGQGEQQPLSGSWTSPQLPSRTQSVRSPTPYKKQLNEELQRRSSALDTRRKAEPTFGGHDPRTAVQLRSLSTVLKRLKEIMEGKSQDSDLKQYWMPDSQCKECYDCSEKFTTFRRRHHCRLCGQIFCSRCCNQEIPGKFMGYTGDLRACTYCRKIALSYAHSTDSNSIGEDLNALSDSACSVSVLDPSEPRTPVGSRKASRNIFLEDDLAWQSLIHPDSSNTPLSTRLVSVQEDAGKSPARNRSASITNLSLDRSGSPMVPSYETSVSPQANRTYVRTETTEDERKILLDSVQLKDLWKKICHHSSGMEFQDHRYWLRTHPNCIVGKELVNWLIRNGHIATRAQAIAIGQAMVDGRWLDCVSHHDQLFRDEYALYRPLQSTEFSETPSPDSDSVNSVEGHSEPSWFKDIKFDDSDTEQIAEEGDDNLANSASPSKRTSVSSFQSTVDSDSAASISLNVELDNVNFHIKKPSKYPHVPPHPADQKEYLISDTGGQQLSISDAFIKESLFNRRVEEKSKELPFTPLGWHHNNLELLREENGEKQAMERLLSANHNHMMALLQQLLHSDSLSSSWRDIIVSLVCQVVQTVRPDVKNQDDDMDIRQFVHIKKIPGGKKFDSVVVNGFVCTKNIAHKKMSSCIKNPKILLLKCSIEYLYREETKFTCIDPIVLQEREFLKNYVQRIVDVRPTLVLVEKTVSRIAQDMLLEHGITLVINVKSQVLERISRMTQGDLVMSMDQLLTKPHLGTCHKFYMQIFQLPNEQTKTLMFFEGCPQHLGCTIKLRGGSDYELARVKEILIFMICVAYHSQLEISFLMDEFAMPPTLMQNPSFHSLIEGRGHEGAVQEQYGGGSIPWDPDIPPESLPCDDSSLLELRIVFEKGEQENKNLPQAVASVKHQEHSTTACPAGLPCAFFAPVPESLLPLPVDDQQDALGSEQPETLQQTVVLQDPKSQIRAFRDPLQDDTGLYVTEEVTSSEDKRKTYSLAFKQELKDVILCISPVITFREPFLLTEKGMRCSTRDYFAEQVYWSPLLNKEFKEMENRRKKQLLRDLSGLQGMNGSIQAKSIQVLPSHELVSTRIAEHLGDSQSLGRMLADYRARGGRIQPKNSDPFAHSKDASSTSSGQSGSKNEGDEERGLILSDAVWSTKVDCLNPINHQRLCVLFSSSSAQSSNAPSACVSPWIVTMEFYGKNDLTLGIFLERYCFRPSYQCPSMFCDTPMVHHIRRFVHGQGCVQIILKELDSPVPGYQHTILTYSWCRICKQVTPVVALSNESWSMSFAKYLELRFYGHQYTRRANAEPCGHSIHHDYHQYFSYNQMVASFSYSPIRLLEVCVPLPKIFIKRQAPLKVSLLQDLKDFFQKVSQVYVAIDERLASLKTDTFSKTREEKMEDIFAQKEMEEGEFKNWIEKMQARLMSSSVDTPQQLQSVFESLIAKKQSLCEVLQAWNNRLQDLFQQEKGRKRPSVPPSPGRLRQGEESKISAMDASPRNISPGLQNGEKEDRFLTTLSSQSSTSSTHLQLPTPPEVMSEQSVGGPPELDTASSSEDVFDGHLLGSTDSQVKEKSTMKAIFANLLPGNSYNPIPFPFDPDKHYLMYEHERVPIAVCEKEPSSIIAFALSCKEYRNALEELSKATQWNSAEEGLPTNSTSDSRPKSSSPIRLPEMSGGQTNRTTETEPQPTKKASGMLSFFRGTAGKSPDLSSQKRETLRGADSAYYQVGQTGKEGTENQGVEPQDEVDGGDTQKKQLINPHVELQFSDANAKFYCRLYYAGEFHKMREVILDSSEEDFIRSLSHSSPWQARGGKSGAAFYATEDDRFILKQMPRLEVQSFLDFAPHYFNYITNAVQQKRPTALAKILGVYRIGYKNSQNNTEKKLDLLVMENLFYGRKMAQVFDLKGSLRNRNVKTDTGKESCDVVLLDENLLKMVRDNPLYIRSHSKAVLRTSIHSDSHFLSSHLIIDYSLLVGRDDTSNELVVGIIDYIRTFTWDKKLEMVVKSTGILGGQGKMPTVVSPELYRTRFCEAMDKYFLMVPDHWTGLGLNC

SMILES | DC50
Cc1cccc(-c2ccn(-c3cc(N4CCOCC4)nc(OCCc4ccc(N5CCN(C(=O)CC[C@H](NC(=O)[C@@H]6C[C@@H](O)CN6C(=O)[C@@H](NC(=O)C6(F)CC6)C(C)(C)C)c6ccc(-c7scnc7C)cc6)CC5)cc4)n3)n2)c1 [Example 76, (2S,4R)-1-((S)-2-(1-fluorocyclopropane-1-carboxamido)-3,3-dimethylbutanoyl)-4-hydroxy-N—((S)-1-(4-(4-methylthiazol-5-yl)phenyl)-4-(4-(4-(2-((4-morpholino-6-(3-(m-tolyl)-1H-pyrazol-1-yl)pyrimidin-2-yl)oxy)ethyl)phenyl)piperazin-1-yl)-4-oxobutyl)pyrrolidine-2-carboxamide] | 1 to 100 nM
Cc1cccc(-c2ccn(-c3cc(N4CCOCC4)nc(OCCc4ccc(N5CCN(C(=O)CCCC[C@H](NC(=O)[C@@H]6C[C@@H](O)CN6C(=O)[C@@H](NC(=O)C6(F)CC6)C(C)(C)C)c6ccc(-c7scnc7C)cc6)CC5)cc4)n3)n2)c1 [Example 77, (2S,4R)-1-((S)-2-(1-fluorocyclopropane-1-carboxamido)-3,3-dimethylbutanoyl)-4-hydroxy-N—((S)-1-(4-(4-methylthiazol-5-yl)phenyl)-6-(4-(4-(2-((4-morpholino-6-(3-(m-tolyl)-1H-pyrazol-1-yl)pyrimidin-2-yl)oxy)ethyl)phenyl)piperazin-1-yl)-6-oxohexyl)pyrrolidine-2-carboxamide] | 1 to 100 nM
Cc1cccc(-c2ccn(-c3cc(N4CCOCC4)nc(OCCc4ccc(NC(=O)NC5CCN(C(=O)C[C@H](NC(=O)[C@@H]6C[C@@H](O)CN6C(=O)[C@@H](NC(=O)C6(F)CC6)C(C)(C)C)c6ccc(-c7scnc7C)cc6)CC5)cc4)n3)n2)c1 [Example 78, (2S,4R)-1-((S)-2-(1-fluorocyclopropane-1-carboxamido)-3,3-dimethylbutanoyl)-4-hydroxy-N—((S)-1-(4-(4-methylthiazol-5-yl)phenyl)-3-(4-(3-(4-(2-((4-morpholino-6-(3-(m-tolyl)-1H-pyrazol-1-yl)pyrimidin-2-yl)oxy)ethyl)phenyl)ureido)piperidin-1-yl)-3-oxopropyl) pyrrolidine-2-carboxamide] | 1 to 100 nM
Cc1cccc(-c2ccn(-c3cc(N4CCOCC4)nc(OCCc4ccc(NC(=O)NC5CCN(C(=O)CC[C@H](NC(=O)[C@@H]6C[C@@H](O)CN6C(=O)[C@@H](NC(=O)C6(F)CC6)C(C)(C)C)c6ccc(-c7scnc7C)cc6)CC5)cc4)n3)n2)c1 [Example 79, (2S,4R)-1-((S)-2-(1-fluorocyclopropane-1-carboxamido)-3,3-dimethylbutanoyl)-4-hydroxy-N—((S)-1-(4-(4-methylthiazol-5-yl)phenyl)-4-(4-(3-(4-(2-((4-morpholino-6-(3-(m-tolyl)-1H-pyrazol-1-yl)pyrimidin-2-yl)oxy)ethyl)phenyl)ureido)piperidin-1-yl)-4-oxobutyl) pyrrolidine-2-carboxamide] | 1 to 100 nM
Cc1cccc(-c2ccn(-c3cc(N4CCOCC4)nc(OC4CCN(c5ccc(NC(=O)NC6CN(C(=O)C[C@H](NC(=O)[C@@H]7C[C@@H](O)CN7C(=O)[C@@H](NC(=O)C7(F)CC7)C(C)(C)C)c7ccc(-c8scnc8C)cc7)C6)cc5)CC4)n3)n2)c1 [Example 80, (2S,4R)-1-((S)-2-(1-fluorocyclopropane-1-carboxamido)-3,3-dimethylbutanoyl)-4-hydroxy-N—((S)-1-(4-(4-methylthiazol-5-yl)phenyl)-3-(3-(3-(4-(4-((4-morpholino-6-(3-(m-tolyl)-1H-pyrazol-1-yl)pyrimidin-2-yl)oxy)piperidin-1-yl)phenyl)ureido)azetidin-1-yl)-3-oxopropyl)pyrrolidine-2-carboxamide] | 1 to 100 nM
Cc1cccc(-c2ccn(-c3cc(N4CCOCC4)nc(OC4CCN(c5ccc(NC(=O)NC6CN(C(=O)CC[C@H](NC(=O)[C@@H]7C[C@@H](O)CN7C(=O)[C@@H](NC(=O)C7(F)CC7)C(C)(C)C)c7ccc(-c8scnc8C)cc7)C6)cc5)CC4)n3)n2)c1 [Example 81, (2S,4R)-1-((S)-2-(1-fluorocyclopropane-1-carboxamido)-3,3-dimethylbutanoyl)-4-hydroxy-N—((S)-1-(4-(4-methylthiazol-5-yl)phenyl)-4-(3-(3-(4-(4-((4-morpholino-6-(3-(m-tolyl)-1H-pyrazol-1-yl)pyrimidin-2-yl)oxy)piperidin-1-yl)phenyl)ureido)azetidin-1-yl)-4-oxobutyl)pyrrolidine-2-carboxamide] | 1 to 100 nM
Cc1cccc(-c2ccn(-c3cc(N4CCOCC4)nc(OC4CCN(c5ccc(NC(=O)NC6CCN(C(=O)C[C@H](NC(=O)[C@@H]7C[C@@H](O)CN7C(=O)[C@@H](NC(=O)C7(F)CC7)C(C)(C)C)c7ccc(-c8scnc8C)cc7)CC6)cc5)CC4)n3)n2)c1 [Example 82, (2S,4R)-1-((S)-2-(1-fluorocyclopropane-1-carboxamido)-3,3-dimethylbutanoyl)-4-hydroxy-N—((S)-1-(4-(4-methylthiazol-5-yl)phenyl)-3-(4-(3-(4-(4-((4-morpholino-6-(3-(m-tolyl)-1H-pyrazol-1-yl)pyrimidin-2-yl)oxy)piperidin-1-yl)phenyl)ureido)piperidin-1-yl)-3-oxopropyl)pyrrolidine-2-carboxamide] | 1 to 100 nM
Cc1cccc(-c2ccn(-c3cc(N4CCOCC4)nc(OC4CCN(c5ccc(NC(=O)NC6CCN(C(=O)CC[C@H](NC(=O)[C@@H]7C[C@@H](O)CN7C(=O)[C@@H](NC(=O)C7(F)CC7)C(C)(C)C)c7ccc(-c8scnc8C)cc7)CC6)cc5)CC4)n3)n2)c1 [Example 83, (2S,4R)-1-((S)-2-(1-fluorocyclopropane-1-carboxamido)-3,3-dimethylbutanoyl)-4-hydroxy-N—((S)-1-(4-(4-methylthiazol-5-yl)phenyl)-4-(4-(3-(4-(4-((4-morpholino-6-(3-(m-tolyl)-1H-pyrazol-1-yl)pyrimidin-2-yl)oxy)piperidin-1-yl)phenyl)ureido)piperidin-1-yl)-4-oxobutyl)pyrrolidine-2-carboxamide] | 1 to 100 nM
Cc1cccc(-c2ccn(-c3cc(N4CCOCC4)nc(OC4CCN(c5ccc(N6CCN(C(=O)C[C@H](NC(=O)[C@@H]7C[C@@H](O)CN7C(=O)[C@@H](NC(=O)C7(F)CC7)C(C)(C)C)c7ccc(-c8scnc8C)cc7)CC6)cc5)CC4)n3)n2)c1 [Example 84, (2S,4R)-1-((S)-2-(1-fluorocyclopropane-1-carboxamido)-3,3-dimethylbutanoyl)-4-hydroxy-N—((S)-1-(4-(4-methylthiazol-5-yl)phenyl)-3-(4-(4-(4-((4-morpholino-6-(3-(m-tolyl)-1H-pyrazol-1-yl)pyrimidin-2-yl)oxy)piperidin-1-yl)phenyl)piperazin-1-yl)-3-oxopropyl) pyrrolidine-2-carboxamide] | 1 to 100 nM
Cc1cccc(-c2ccn(-c3cc(N4CCOCC4)nc(OC4CCN(c5ccc(N6CCN(C(=O)CC[C@H](NC(=O)[C@@H]7C[C@@H](O)CN7C(=O)[C@@H](NC(=O)C7(F)CC7)C(C)(C)C)c7ccc(-c8scnc8C)cc7)CC6)cc5)CC4)n3)n2)c1 [Example 85, (2S,4R)-1-((S)-2-(1-fluorocyclopropane-1-carboxamido)-3,3-dimethylbutanoyl)-4-hydroxy-N—((S)-1-(4-(4-methylthiazol-5-yl)phenyl)-4-(4-(4-(4-((4-morpholino-6-(3-(m-tolyl)-1H-pyrazol-1-yl)pyrimidin-2-yl)oxy)piperidin-1-yl)phenyl)piperazin-1-yl)-4-oxobutyl) pyrrolidine-2-carboxamide] | 1 to 100 nM
Cc1cccc(-c2ccn(-c3cc(N4CCOCC4)nc(OC4CCN(c5ccc(N6CCN(C(=O)CCCC[C@H](NC(=O)[C@@H]7C[C@@H](O)CN7C(=O)[C@@H](NC(=O)C7(F)CC7)C(C)(C)C)c7ccc(-c8scnc8C)cc7)CC6)cc5)CC4)n3)n2)c1 [Example 86, (2S,4R)-1-((S)-2-(1-fluorocyclopropane-1-carboxamido)-3,3-dimethylbutanoyl)-4-hydroxy-N—((S)-1-(4-(4-methylthiazol-5-yl)phenyl)-6-(4-(4-(4-((4-morpholino-6-(3-(m-tolyl)-1H-pyrazol-1-yl)pyrimidin-2-yl)oxy)piperidin-1-yl)phenyl)piperazin-1-yl)-6-oxohexyl) pyrrolidine-2-carboxamide] | 1 to 100 nM
Cc1cccc(-c2ccn(-c3cc(N4CCOCC4)nc(OCCc4ccc(-c5ccc(NC(=O)C[C@H](NC(=O)[C@@H]6C[C@@H](O)CN6C(=O)[C@@H](NC(=O)C6(F)CC6)C(C)(C)C)c6ccc(-c7scnc7C)cc6)cc5)cc4)n3)n2)c1 [Example 87, (2S,4R)-1-((S)-2-(1-fluorocyclopropane-1-carboxamido)-3,3-dimethylbutanoyl)-4-hydroxy-N—((S)-1-(4-(4-methylthiazol-5-yl)phenyl)-3-((4′-(2-((4-morpholino-6-(3-(m-tolyl)-1H-pyrazol-1-yl)pyrimidin-2-yl)oxy)ethyl)-[1,1′-biphenyl]-4-yl)amino)-3-oxopropyl)pyrrolidine-2-carboxamide] | 1 to 100 nM
Cc1cccc(-c2ccn(-c3cc(N4CCOCC4)nc(OCCc4ccc(-c5ccc(NC(=O)CC[C@H](NC(=O)[C@@H]6C[C@@H](O)CN6C(=O)[C@@H](NC(=O)C6(F)CC6)C(C)(C)C)c6ccc(-c7scnc7C)cc6)cc5)cc4)n3)n2)c1 [Example 88, (2S,4R)-1-((S)-2-(1-fluorocyclopropane-1-carboxamido)-3,3-dimethylbutanoyl)-4-hydroxy-N—((S)-1-(4-(4-methylthiazol-5-yl)phenyl)-4-((4′-(2-((4-morpholino-6-(3-(m-tolyl)-1H-pyrazol-1-yl)pyrimidin-2-yl)oxy)ethyl)-[1,1′-biphenyl]-4-yl)amino)-4-oxobutyl)pyrrolidine-2-carboxamide] | 1 to 100 nM
Cc1cccc(-c2ccn(-c3cc(N4CCOCC4)nc(OC4CCN(c5ccc(N6CCN(c7cc8c(cc7F)C(=O)N(C7CCC(=O)NC7=O)C8=O)CC6)cc5)CC4)n3)n2)c1 (centres unmarked) [Example 89, 2-(2,6-Dioxopiperidin-3-yl)-5-fluoro-6-(4-(4-(4-((4-morpholino-6-(3-(m-tolyl)-1H-pyrazol-1-yl)pyrimidin-2-yl)oxy)piperidin-1-yl)phenyl)piperazin-1-yl)isoindoline-1,3-dione] | 100 to 10000 nM
